{
  "source": "patent US20240252652A1",
  "about": "“PROTEINS HAVING UNNATURAL AMINO ACIDS AND METHODS OF USE” (The Regents of the University of California, priority 2021, published 2024)",
  "key": {"[1]": {"tested_on": "nucleoside monophosphates (AMP, UMP, CMP, GMP)", "assay": "In vitro incubations of NMPs and SFY (MS detection of adducts)", "assay_type": "biochemical", "details": "50 mM SFY, 50 mM NMP, 37° C., 16 hours", "method": "In addition, to check if SFY could cross-link all four nucleotides, we incubated 50 mM SFY with 50 mM different nucleoside monophosphates (NMPs: AMP, UMP, CMP, or GMP) at 37° C. for 16 hours.\nIn vitro incubations of NMPs and SFY. 50 mM SFY (HCl salt) and 50 mM NMP was incubated in DI H2O. 50 mM NaOH was added to neutralize the HCl salt. The mixture was incubated at 37° C. for […]. Then the reaction mixture was diluted for 50 times in H2O/acetonitrile (50/50, v/v, with 0.1% trifluoracetic acid) and subjected to mass spectrum analysis using positive mode. Mass spectrum analysis was performed on SCIEX MDS, 3200 Q TRAP system.\nThe molecular weight (MW) of addict products between SFY and NMP was calculated following this equation: MW (adduct product)=MW (SFY)+MW (NMP)−MW (HF)."}, "m^6A modified RNA": {"tested_on": "m^6A modified RNA", "assay": "GRIP-seq (high-throughput sequencing)", "assay_type": "cell-based, human", "text": "To detect endogenous m^6A sites in mammalian cells throughout the transcriptome, we developed GRIP-seq through combining GRIP for m^6A with high-throughput sequencing, enabling global identification of m^6A sites in vivo with single-nucleotide resolution (FIG. 12A). In brief. HEK293T cells expressing YTH-397SFY protein (FIG. 19A) were lysed and treated with RNase to partially digest RNA into short fragments. After GRIP for these cell lysates (FIG. 19A), the purified protein-RNA cross-links were treated with proteinase K to release the cross-linked RNA fragments, which were converted into a cDNA library through adapting the enhanced CLIP protocol and then subjected to high-throughput sequencing. All m^6A sites cross-linked by YTH-397SFY protein in vivo would be captured and identified by reverse transcription termination at the upstream cross-linked nucleotides. Van Nostrand et al. Nat. Methods 13:508-514 (2016)\nWe generated four pairs of GRIP-seq libraries. For each pair, we generated one library for the INPUT sample, which represents the RNA fragments from the whole cell lysate, and one library for the IP sample, which represents the RNA fragments cross-linked with the purified YTH proteins. […] For each library, around 10 to 35 million reads were obtained (data not shown). After removing adaptors, we first mapped the reads to the transcriptome. […]"}},
  "data": [
    {"smiles": "COc1ccc(C[C@H](N)C(=O)O)cc1S(=O)(=O)F", "note": "[SFY, (S)-1-carboxy-2-(3-(fluorosulfonyl)-4-methoxyphenyl)ethan-1-aminium]", "values": [
      {"measurement": "cross-linking adducts with NMPs", "setting": "[1]", "result": "adducts of SFY with all four NMPs were detected"},
      {"measurement": "RNA nucleotides cross-linked in vivo", "setting": "m^6A modified RNA", "result": "all four RNA nucleotides"}
    ]}
  ]
}
